The target in one data set is T1, Canine sEH (Canis lupus familiaris, UniProt A0A8I3NJL8).
T1 construct: canine enzyme was partially purified on a Q-sepharose column from liver cytosol; from tissue; host or cells: dog liver cytosol, about 10-fold purification on Q-sepharose
T1 sequence (A0A8I3NJL8 1-556): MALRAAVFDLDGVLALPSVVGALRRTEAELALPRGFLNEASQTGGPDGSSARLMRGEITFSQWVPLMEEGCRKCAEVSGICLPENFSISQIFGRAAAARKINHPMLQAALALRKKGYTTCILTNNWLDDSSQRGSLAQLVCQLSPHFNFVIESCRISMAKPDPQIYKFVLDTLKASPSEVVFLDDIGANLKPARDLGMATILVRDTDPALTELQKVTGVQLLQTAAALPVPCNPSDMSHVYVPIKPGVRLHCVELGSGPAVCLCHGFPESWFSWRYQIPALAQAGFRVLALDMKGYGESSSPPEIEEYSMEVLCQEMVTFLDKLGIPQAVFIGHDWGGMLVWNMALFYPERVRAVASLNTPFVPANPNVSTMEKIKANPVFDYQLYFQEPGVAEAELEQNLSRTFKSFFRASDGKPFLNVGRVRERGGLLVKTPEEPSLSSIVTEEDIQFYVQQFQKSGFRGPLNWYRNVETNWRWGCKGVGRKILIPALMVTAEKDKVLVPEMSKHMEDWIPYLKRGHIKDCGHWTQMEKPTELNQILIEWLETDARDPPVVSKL
The experiment in a line: Canine sEH inhibition IC50. The settings on record: canine enzyme partially purified from liver cytosol. The class given is biochemical.

Another data set has as its system aged beagle dogs with OA. Briefly: Pain and function assessment (modified CBPI questionnaire) in arthritic dogs. Type of data set: in vivo, dog. The method, then: The study was conducted as a blinded, parallel matched-group design. Dogs were randomized into groups based on pretreatment pain scores and each group was randomly assigned a treatment. Prior to randomization, each dog was assessed for arthritis by radiograph to assess the severity of OA by presence of osteophytes, subchondral sclerosis or joint effusion each scored on a scale of 0 (least) to 3 (worst) for each of 12 joints. Severity of the radiograph score was included in the randomization protocol and distributed between the groups, and there were no statistical differences between the averages of each group. Individual radiograph scores can be found in Supplementary Table S2. […] Compounds were dissolved in PEG300 to a concentration of 2.4 mg/mL (1 mg/kg) and 12 mg/mL (5 mg/kg) and administered as approximately 5 mL in size 12 gelatin capsules (Torpac) administered once daily on days 1 through 5. Vehicle group consisted of 5 mL PEG300 in capsule. Concurrent medications were not allowed and not needed during the study.
Pain and function were assessed by a questionnaire answered by blinded technicians based on observation of study animals housed at InterVivo. The survey was adapted from the canine brief pain inventory (CBPI), which was developed based on clinical questionnaires in which owners score the function and pain level of their pets with existing pain conditions ([Brown et al., 2007]). Modifications to the questionnaire attempted to account for differences between owner pain evaluation of pets and pain evaluation of laboratory dogs by technical staff. For survey administration, blinded technicians attempted to elicit objective behavior-specific measures of function and pain level across a variety of normal canine behaviors (e.g., walking, trotting, galloping, rearing, and stair-climbing, etc.). For this, one technician was responsible for soliciting the relevant behaviors from a dog using encouragement and/or food rewards, while the evaluating technician scored function and observable pain using the modified CBPI questionnaire. Subjects were tested daily on Days -7 through -3, to develop baseline scores, and again on Days 1 through 5 administered 1.5 h after dosing. Dosing occurred in the morning, and observations were recorded 1.5 h after dosing, to limit time-of-day variability. Questions are listed in Supplementary Table S3. […]
Canine pain and function data were analyzed using ANOVA, linear mixed effects model, with Tukey adjustment in R and repeated measures ANOVA. Correlations coefficients were calculated in Graphpad Prism using the non-parametric Spearman correlation coefficient. In vitro experiments were analyzed using ANOVA in Graphpad Prism. […]

Experimental findings from PMC6554663, “Pharmaceutical Effects of Inhibiting the Soluble Epoxide Hydrolase in Canine Osteoarthritis” (Frontiers in Pharmacology, 2019) are described below.

“Also recorded” adds a separate entry of the source.

For the compound `CN(C(=O)N[C@H]1CC[C@H](Oc2ccc(C(=O)O)cc2)CC1)c1ccc(OC(F)(F)F)cc1` [EC3039, trans-4-{4-[3-methyl-3-(4-trifluoromethoxy-phenyl)-ureido]-cyclohexyloxy}-benzoic acid], the melting point is 92.4 to 94.7 °C. The half-maximal inhibitory concentration (IC50) against Canine sEH was 4.42 nM.

For `O=C(Nc1ccc(OC(F)(F)F)cc1)N[C@H]1CC[C@H](Oc2ccc(C(=O)O)cc2)CC1` [EC1728, trans-4-{4-[3-(4-trifluoromethoxy-phenyl)-ureido]-cyclohexyloxy}-benzoic acid], the “function scores compared to the other groups (trend)” value in the data set on aged beagle dogs with OA (5 mg/kg oral once daily) is on record as “tended to have increased function scores”. In addition, the “pain compared to placebo / vehicle control” value with aged beagle dogs with OA (5 mg/kg oral once daily for 5 days, p < 0.05) is given as “significantly reduced pain; also recorded: significantly less pain”. For the same compound, in the data set on aged beagle dogs with OA (5 mg/kg oral once daily, after 5-days of dosing), the increase in function is listed as 16%. Besides, the “reduction in pain compared to predose values (maximum effect)” value in the data set with aged beagle dogs with OA (5 mg/kg oral once daily, day 4, average) came to 44%.
